According to article PMC7582705, “Structure-Based Discovery of Novel Chemical Classes of Autotaxin Inhibitors” (International Journal of Molecular Sciences, 2020):

Assays:
ATX [1] = target: T1, ATX (Homo sapiens, UniProt Q13822); test: IC50 Eleanna (Table S2, method not described); assay type: biochemical; settings: Table S2; read-out: IC50 Eleanna
ATX [2] = target: T1, ATX; test: Amplex Red Lyso-phospholipase D assay, human ATX; assay type: biochemical; parameters: purchased Sino Biological; settings: for IC50: Table S2, Sino hATX 2nM; for inhibition at 30 µM: read-out: %inhibition at 30uM
Experimental: All compounds proposed were assessed for their ATX inhibitory activity in vitro using the Amplex Red assay. The Amplex Red Lyso-phospholipase D assay is a fluorometry-based assay providing a sensitive method for measuring Lyso-phospholipase D (ATX) activity in vitro. In this enzyme-coupled assay, ATX activity is monitored indirectly using 10-acetyl-3,7-dihydrophenoxazine (Amplex Red reagent), a sensitive fluorogenic probe for H2O2. ATX initially cleaves the Lysophosphatidylcholine (LPC) substrate to yield choline and Lysophosphatidic acid (LPA), while choline gets subsequently oxidized by choline oxidase to betaine and H2O2. Lastly, H2O2, in the presence of horseradish peroxidase (HRP), reacts with Amplex Red reagent in a 1:1 stoichiometry to generate the highly fluorescent product resorufin.
The inhibition assay was performed as previously described with some modifications in order to accommodate the newly-discovered lag phase in ATX kinetics. To this end, and in order to provide adequate time to the hydrolysis of LPC by ATX, we added a 30min incubation period between ATX, inhibitors and LPC. Briefly, 2 μL of different concentrations of inhibitors diluted in DMSO (Sigma-Aldrich, St. Louis, MO, USA) were incubated with 50 µL of ATX 8 nM (human or mouse ATX from Sino Biological), and 48 µL reaction buffer (50 mM Tris-Cl pH 8.0 from Thermo Fisher Scientific, Waltham, MA, USA and 5 mM CaCl2 from Honeywell-Fluka, Charlotte, NC, USA) in a black 96-well microplate for 15 min at 37 °C. Thence, another 50 µL of reaction buffer with 200 μM LPC substrate 16:0 (Avanti Polar Lipids Inc, Alabaster, AL, USA) ([…]) was added to the reaction mixture and incubated for 30 min at 37 °C in order for ATX to convert LPC to LPA and choline. Finally, 50 µL of working solution containing 200 μM Amplex Red (Invitrogen, Carlsbad, CA, USA), 4 U/mL HRP (Sigma-Aldrich, St. Louis, MO, USA), 0.4 U/mL choline oxidase (Sigma-Aldrich, St. Louis, MO, USA) in 50 mM Tris-HCl pH 8.0 and 5 mM CaCl2 was added to measure the produced choline. The reaction was monitored at 37 °C in a fluorescence plate reader using excitation at 530 nm and reading at 590 nm, every 5 min for 30 min. The velocity of the reaction and the remaining activity of ATX were calculated at the linear phase of the reaction and dose-response inhibition graphs were plotted with GraphPad Software (GraphPad Software, San Diego, CA, USA). […] In order to evaluate a possible effect of the compounds on the second (choline oxidase) and third (HRP) enzymes of the Amplex Red assay, we also performed the assay in the absence of ATX but in the presence of the compounds. Instead of ATX, we added choline chloride at a final concentration of 2 µM so as the second and third steps of the assay could proceed normally.

[3] = read-out: in vitro IC50 (Sino hATX 2nM)

SMILES | IC50 (ATX [1]) | IC50 (ATX [2]; in vitro IC50 (Sino hATX 2nM)) | inhibition at 30 µM (ATX [2]; Table S2, at 30uM) | IC50 (ATX [2]; [3]) | %inhibition at 30uM (ATX [2]; Table S2, at 30uM)
COCCCN1C(=O)c2[nH]nc(-c3ccccc3)c2C1c1ccc(C(C)C)cc1 (stereo not drawn) [KM-2, 5-(3-methoxypropyl)-3-phenyl-4-(4-propan-2-ylphenyl)-1,4-dihydropyrrolo[3,4-c]pyrazol-6-one] | > 5 µM | > 30 µM |  |  | 
CCc1ccccc1NC(=O)C1c2ccccc2C(=O)N(CCOC)C1c1cccs1 (stereo not drawn) [KM-4, N-(2-ethylphenyl)-2-(2-methoxyethyl)-1-oxo-3-thiophen-2-yl-3,4-dihydroisoquinoline-4-carboxamide] | > 5 µM | > 30 µM |  |  | 
CCOC(=O)c1c(CN2CCCCC2)n(-c2ccccc2)c2cc(Br)c(OC)cc12 [KM-6, ethyl 6-bromo-5-methoxy-1-phenyl-2-(piperidin-1-ylmethyl)indole-3-carboxylate] | 4.5 µM | > 30 µM | 20.6% |  | 
COc1ccccc1C(=O)NCc1nc2ccccc2n1Cc1cc(C)ccc1C [KM-9, N-[[1-[(2,5-dimethylphenyl)methyl]benzimidazol-2-yl]methyl]-2-methoxybenzamide,] | 5 µM | > 30 µM | 17.1% |  | 
Cc1ccc(C)c(NC(=O)CSc2cn(CC(=O)N3CCCC3)c3ccccc23)c1 [KM-21, N-(2,5-dimethylphenyl)-2-[1-(2-oxo-2-pyrrolidin-1-ylethyl)indol-3-yl]sulfanylacetamide] | > 5 µM | > 30 µM |  |  | 
COc1cc([C@H]2c3cccn3CCN2C(=S)Nc2ccccc2C)cc(OC)c1OC [KM-27, N-(o-tolyl)-1-(3,4,5-trimethoxyphenyl)-3,4-dihydro, (1S)-N-(2-methylphenyl)-1-(3,4,5-trimethoxyphenyl)-3,4-dihydro-1H-pyrrolo[1,2-a]pyrazine-2-carbothioamide] | 1 µM |  |  | > 30 µM | 
COc1ccc(Cn2c(C(=O)O)c(CNC3CCCCC3)c3ccc(C)cc32)cc1 [KM-29, 3-[(cyclohexylamino)methyl]-1-[(4-methoxyphenyl)methyl]-6-methylindole-2-carboxylic acid] | 1.2 µM | > 30 µM | 3.21% |  | 
CCOC(=O)Cc1c(CN2CCN(C)CC2)c2ccccc2n1Cc1ccccc1 [KM-30, ethyl 2-[1-benzyl-3-[(4-methylpiperazin-1-yl)methyl]indol-2-yl]acetate] | 5 µM | > 30 µM | 0% |  | 
COc1ccc(NC(=S)N2CCn3cccc3C2c2ccc(OC)c(OC)c2)cc1 (stereo not drawn) [KM-31, 1-(3,4-dimethoxyphenyl)-N-(4-methoxyphenyl)-3,4-dihydro-1H-pyrrolo[1,2-a]pyrazine-2-carbothioamide] | 4.5 µM | > 30 µM |  |  | 
CCc1ccc([C@H](NC(=O)CCN2C(=O)[C@@H](C)Oc3ccccc32)c2cccs2)cc1 [KM-36, N-[(S)-(4-ethylphenyl)-thiophen-2-ylmethyl]-3-[(2R)-2-methyl-3-oxo-1,4-benzoxazin-4-yl]propanamide] | 5 µM | > 30 µM | 9.71% |  | 
CCOC(=O)c1c(-c2ccccc2)oc2ccc(O)c(CN3CCC(C)CC3)c12 [KM-39, 3-ethoxycarbonyl-4-[(4-methylpiperidin-1-ium-1-yl)methyl]-2-phenyl-1-benzofuran-5-olate] | 5 µM | > 30 µM |  |  | 
CCOC(=O)c1c(-c2ccccc2)oc2ccc(O)c(CN3CCC(C)CC3)c12.Cl [KM-40, ethyl 5-hydroxy-4-[(4-methylpiperidin-1-yl)methyl]-2-phenyl-1-benzofuran-3-carboxylate;hydrochloride] |  |  |  | > 30 µM | 41.295%
CC1Cc2nc(SCC(=O)NCc3ccc(F)cc3)n(Cc3ccccc3)c(=O)c2S1 (stereo not drawn) [KM-45, 2-[(3-benzyl-6-methyl-4-oxo-6,7-dihydrothieno[3,2-d]pyrimidin-2-yl)sulfanyl]-N-[(4-fluorophenyl)methyl]acetamide] | 1.3 µM | > 30 µM | 35.3% |  | 
COc1ccc2c(CNC3CCC(C)CC3)c(C(=O)O)n(Cc3ccccc3)c2c1 (stereo not drawn) [KM-47, 1-benzyl-6-methoxy-3-[[(4-methylcyclohexyl)amino]methyl]indole-2-carboxylic acid] | > 5 µM | > 30 µM |  |  | 
CCOC(=O)c1c(-c2ccccc2)oc2ccc(O)c(CN3CCCCC3C)c12 (stereo not drawn) [KM-48, 2,3-dihydroxybutanedioic acid;ethyl 5-hydroxy-4-[(2-methylpiperidin-1-yl)methyl]-2-phenyl-1-benzofuran-3-carboxylate] | > 5 µM |  |  | > 30 µM | 
CCOC(=O)c1c(C)c(-c2ccccc2)n(CC(=O)N2CCc3ccccc3C2)c1C [KM-49, ethyl 1-[2-(3,4-dihydro-1H-isoquinolin-2-yl)-2-oxoethyl]-2,4-dimethyl-5-phenylpyrrole-3-carboxylate] | 5 µM | > 30 µM |  |  | 
Cc1cc(C)cc(NC(=O)CSc2cn(CC(=O)N3CCCC3)c3ccccc23)c1 [KM-50, N-(3,5-dimethylphenyl)-2-[1-(2-oxo-2-pyrrolidin-1-ylethyl)indol-3-yl]sulfanylacetamide] | 5 µM | > 30 µM |  |  | 
Cc1ccccc1-n1nc2c(c1NC(=O)c1cccc3ccccc13)C[S+]([O-])C2 (stereo not drawn) [SC-3, N-[2-(2-methylphenyl)-5-oxo-4,6-dihydrothieno[3,4-c]pyrazol-3-yl]naphthalene-1-carboxamide] | 0.6 µM | > 30 µM | 4.2% |  | 
O=S(=O)(c1ccc(F)cc1)N1C=Cc2ccccc2C1c1c[nH]c2ccccc12 (stereo not drawn) [SC-4, 2-(4-fluorophenyl)sulfonyl-1-(1H-indol-3-yl)-1H-isoquinoline] | > 5 µM | > 30 µM |  |  | 
O=C(Cc1cccc2ccccc12)Nc1c2c(nn1-c1ccccc1)CS(=O)(=O)C2 [SC-5, N-(5,5-dioxo-2-phenyl-4,6-dihydrothieno[3,4-c]pyrazol-3-yl)-2-naphthalen-1-ylacetamide] | 2.2 µM | 30 µM | 43% |  | 
O=C(Nc1c2c(nn1-c1ccccc1)CS(=O)(=O)C2)c1cccc2ccccc12 [SC-6, N-(5,5-dioxo-2-phenyl-4,6-dihydrothieno[3,4-c]pyrazol-3-yl)naphthalene-1-carboxamide] | > 5 µM | > 30 µM |  |  | 
O=C(Cc1cccc2ccccc12)Nc1c2c(nn1-c1ccccc1)C[S+]([O-])C2 (stereo not drawn) [SC-7, 2-naphthalen-1-yl-N-(5-oxo-2-phenyl-4,6-dihydrothieno[3,4-c]pyrazol-3-yl)acetamide] | > 5 µM | > 30 µM |  |  | 
COc1ccc(C2SCCN2S(=O)(=O)c2ccc3c(c2)Cc2ccccc2-3)cc1 (stereo not drawn) [SC-8, 3-(9H-fluoren-2-ylsulfonyl)-2-(4-methoxyphenyl)-1,3-thiazolidine] | > 5 µM | > 30 µM |  |  | 
O=C(Nc1c2c(nn1-c1ccccc1)C[S+]([O-])C2)c1cccc2ccccc12 (stereo not drawn) [SC-9, N-(5-oxo-2-phenyl-4,6-dihydrothieno[3,4-c]pyrazol-3-yl)naphthalene-1-carboxamide] | > 5 µM | > 30 µM |  |  | 
Cn1c(-c2ccccc2)c(C(=O)Cn2cnc3ccsc3c2=O)c2ccccc21 [SC-10, 3-[2-(1-methyl-2-phenylindol-3-yl)-2-oxoethyl]thieno[3,2-d]pyrimidin-4-one] | > 5 µM | > 30 µM |  |  | 
O=C1Cc2cc(C(=O)CSc3nc4ccccc4n3-c3ccccc3)ccc2N1 [SC-12, 5-[2-(1-phenylbenzimidazol-2-yl)sulfanylacetyl]-1,3-dihydroindol-2-one] | 0.9 µM | > 30 µM |  |  | 
O=C(Nc1c2c(nn1-c1ccc(F)cc1)C[S+]([O-])C2)c1cccc2ccccc12 (stereo not drawn) [SC-14, N-[2-(4-fluorophenyl)-5-oxo-4,6-dihydrothieno[3,4-c]pyrazol-3-yl]naphthalene-1-carboxamide] | > 5 µM | > 30 µM | 9.6% |  | 
Cc1ccc(-n2nc3c(c2NC(=O)c2cccc4ccccc24)C[S+]([O-])C3)cc1 (stereo not drawn) [SC-16, N-[2-(4-methylphenyl)-5-oxo-4,6-dihydrothieno[3,4-c]pyrazol-3-yl]naphthalene-1-carboxamide] | > 5 µM | > 30 µM | 13.6% |  | 
